The source of these data is patent US12595250B2, “Substituted pyrimidine compounds as multifunctional radical quenchers and their uses” (ARIZONA BOARD OF REGENTS ON BEHALF OF ARIZONA STATE …, priority 2016, dated 2026).

For data set [1], the system named is FRDA lymphocytes. Kind of data set: Cellular ATP concentration assay (luciferin-luciferase). The format is cell-based, Human. The following applies: for activity at 1 µM / activity at 5 µM / activity at 20 µM: Homo sapiens, Lymphocyte, incubation 48 h, read-out: Total ATP level (% control) FRDA lymphocytes.
Data set [2] in a line: In vitro microsomal stability assay. The data set is classed as in vitro ADME. The following applies: pH 7.4, bovine liver microsomes 1 mg/mL, 25 μM compound, 37° C., NADPH, read-out: Recovery (%) of compound after reaction with activated microsomes. On the procedure:
Liver tissues were diced into small pieces and then washed with isotonic sucrose buffer (0.25 M sucrose, 10 mM Tris-HCl, 0.5 mM EDTA, pH 7.8). The diced tissue was passed through a precooled meat grinder and mixed with three-fold ice cold sucrose buffer supplemented with a mixture of protease inhibitors. The suspension was homogenized in a Waring blender for 25 s at high speed. At this stage, the pH of the suspension was adjusted to 7.4 with 1 M Tris base. The homogenate was centrifuged for 20 min at 1200×g to remove cell debris. The supernatant suspension was homogenized in a tight fitting Teflon-glass Potter-Elvehjem homogenizer and then centrifuged twice at 10,000×g for 20 min, collecting the supernatant each time to remove mitochondria. The floating fat layer was carefully removed by filtering the supernatant through layers of cheesecloth. The supernatant was centrifuged at 150,000×g for 30 min (Beckman-Coulter ultracentrifuge, XL-100K-01, SW 55 Ti rotor). The pellet (microsomal fraction) was suspended in 0.25 M sucrose buffer containing 10 mM Tris-HCl, pH 7.4, with 20% (v/v) glycerol, and centrifuged once more at 150,000×g. The pellet was resuspended in sucrose buffer with 20% (v/v) glycerol. The protein concentration after resuspension was approximately 20 mg/mL, as determined by BCA protein assay (Pierce Chemical) using bovine serum albumin as a standard. Aliquots of microsomal suspensions were stored at −80° C.
In vitro metabolic stability was determined in bovine liver microsomes at a protein concentration of 1 mg/mL in 50 mM phosphate buffer mixture, pH 7.4, containing 5 mM MgCl2 in a final incubation volume of 0.5 mL. Each test compound was added to a final concentration of 25 μM. This mixture was pre-warmed to 37° C. prior to starting the reaction by the addition of β-NADPH to 1 mM final concentration. After incubation for 30 min at 37° C., the reaction was quenched by the addition of 1 mL of propanol, vortexed for 2 min and centrifuged at 15,000×g for 10 min to pellet the precipitated protein. The resulting supernatant was pipetted out and then concentrated under diminished pressure. A parallel incubation of the test compound with deactivated microsomes (quenched immediately with propanol) lacking β-NADPH served as a control and was run for each test agent to detect microsome-independent degradation. The sample was reconstituted in 130 μL MeOH and centrifuged again at 15,000×g for 3 min. The supernatant was removed and 4 μM fluorene was added as an internal standard before HPLC analysis. HPLC analyses were performed on a Zorbax SB-Phenyl reversed phase analytical (150×4.6 mm, 5 m) HPLC column using a mobile phase consisting of MeOH/H2O. A linear gradient of (50:50 MeOH/H2O→100:0 MeOH/H2O) was employed over a period of 14 min at a flow rate of 1 mL/min. Metabolic stability was expressed as percent of control remaining. The experiments were carried out in duplicate to verify the results.

The test system of data set [3] is FRDA lymphocytes. Briefly: Lipid peroxidation assay (C11-BODIPY 581/591, FACS). The format is cell-based, Human. The following applies: 0.1 μM (low concentration), 5 mM DEM. On the procedure: The bar graph represents the percentage of the median mean fluorescence intensity of C11-BODIPY-green fluorescence relative to a treated control is shown. Data are expressed as the mean±SEM (n=3).
Human mitochondrial disease cell lines, Friedreich's ataxia lymphocytes (GM15850), and Leigh's syndrome lymphocytes (GM13740) were obtained from Coriell Cell Repositories (Camden, NJ). Lymphocytes were cultured in RPMI-1640 medium (Gibco, Life Technologies, Grand Island, NY) with 15% fetal calf serum, 2 mM glutamine (HyClone, South Logan, UT) and 1% penicillin-streptomycin antibiotic supplement (Cellgro, Manassas, VA). Cells were passaged every other day to maintain them in log phase growth and kept at a nominal concentration of 5-10×10^5 cell/mL. A CoQ10 deficient lymphocyte cell line (GM17932) was obtained from Coriell Cell Repositories. […]
Lipid peroxidation was measured by a quantitative FACS assay using the oxidation-sensitive fatty acid probe C11-BODIPY^581/591 (Molecular Probe) as described in art (Goldschmidt, R., et al. Bioorg. Med. Chem. 2013, 21, 969; Khdour, 0. M., et al. ACS Med. Chem. Lett. 2013, 4, 724; and Arce, P. M., et al. Bioorg. Med. Chem. 2012, 20, 5188). […] Cells were resuspended in phosphate buffered saline and were analyzed immediately by FACS (C6 Accuri, BD Biosciences, San Jose, CA), using a 488 nm excitation laser and the FL1-H channel 530±15 nm emission filter. The generation of lipid peroxide was detected as a result of the oxidation of the polyunsaturated butadienyl portion of the dye, resulting in a shift of the fluorescence emission peak from red to green. In each analysis, 10,000 events were recorded after cell debris were electronically gated out. […] Results were expressed as a percentage of the median mean fluorescence intensity of C11-BODIPY-green relative to the treated control (DEM).

Take `CCCCCCCCCCCCCCc1nc(OC2CCC2)nc(N2CCC2)c1O` [Compound 2b, 4-(Azetidin-1-yl)-2-cyclobutanoxy-6-tetradecylpyrimidin-5-ol]: in data set [1], the activity at 1 µM is 109 ± 3% and the activity at 5 µM was determined as 105 ± 2%. Besides, the activity at 20 µM in data set [1] (20 μM) came out at 54 ± 6%. In addition, the recovery at 30 min, 25 μM in data set [2] came to 77%. Moreover, the “Suppression of lipid peroxidation, comparison of regioisomers (in words, FIG. 2)” value in data set [3] was “significantly more efficient than 1b”.

As for `Cc1nc(OC2CCC2)nc(N2CCC2)c1O` [Compound 2a, 4-(Azetidin-1-yl)-2-cyclobutanoxy-6-methylpyrimidin-5-ol], in data set [1], the activity at 1 µM was 101 ± 1% and the activity at 5 µM is 99 ± 3%. The activity at 20 µM in data set [1] (20 μM) worked out at 96 ± 3%.

`CCCCCCCCCCCCCCCCc1nc(OC2CCC2)nc(OC2CCC2)c1O` [Compound 3c, 2,4-Dicyclobutanoxy-6-hexadecylpyrimidin-5-ol]: in data set [1], the activity at 1 µM came out at 98 ± 2% and the activity at 5 µM amounted to 102 ± 2%. In addition, the activity at 20 µM in data set [1] (20 μM) worked out at 96 ± 2%. Further, the recovery at 30 min, 25 μM in data set [2] worked out at 60 ± 5%.

On to `Cc1nc(OC2CCC2)nc(OC2CCC2)c1O` [Compound 3a, 2,4-Dicyclobutanoxy-6-methylpyrimidin-5-ol], for which, in data set [1], the activity at 1 µM was 101 ± 1% and the activity at 5 µM turned out to be 99 ± 2%. In addition, the activity at 20 µM in data set [1] (20 μM) was 97 ± 3%.

Turning to `Cc1nc(N2CCC2)nc(OC2CCC2)c1O` [Compound 1a, 2-(Azetidin-1-yl)-4-cyclobutanoxy-6-methylpyrimidin-5-ol], in data set [1], the activity at 1 µM was determined as 100 ± 1% and the activity at 5 µM turned out to be 98 ± 1%. In data set [1] (20 μM), the activity at 20 µM came out at 96 ± 2%.

As for `Cc1nc(N2CCC2)nc(N2CCC2)c1O` [Compound 4a, 2,4-Di-(azetidin-1-yl)-6-methylpyrimidin-5-ol], in data set [1] (20 μM), the “Inhibition of ATP production (in words)” value is “this effect seems less obvious” and the activity at 20 µM worked out at 85 ± 9%. Also, in data set [1], the activity at 1 µM came out at 101 ± 2% and the activity at 5 µM was found to be 101 ± 2%.

As for `CCCCCCCCCCCCCCCCc1nc(OC2CCC2)nc(N2CCC2)c1O` [Compound 2c, 4-(Azetidin-1-yl)-2-cyclobutanoxy-6-hexadecylpyrimidin-5-ol], in data set [1], the activity at 1 µM came out at 102 ± 2% and the activity at 5 µM amounted to 110 ± 4%. Also, the activity at 20 µM in data set [1] (20 μM) amounted to 99 ± 2%. Further, the recovery at 30 min, 25 μM in data set [2] came out at 63 ± 9%. For the same compound, in data set [3], the “Suppression of lipid peroxidation, comparison of regioisomers (in words, FIG. 2)” value is “better than 1c”.

As to `CCCCCCCCCCCCCCc1nc(N2CCC2)nc(OC2CCC2)c1O` [Compound 1b, 2-(Azetidin-1-yl)-4-cyclobutanoxy-6-tetradecylpyrimidin-5-ol], in data set [1], the activity at 1 µM worked out at 105 ± 3% and the activity at 5 µM worked out at 102 ± 1%. The activity at 20 µM in data set [1] (20 μM) stood at 94 ± 2%. Besides, in data set [2], the recovery at 30 min, 25 μM amounted to 63 ± 8%.

`CCCCCCCCCCCCCCCCc1nc(N2CCC2)nc(OC2CCC2)c1O` [Compound 1c, 2-(Azetidin-1-yl)-4-cyclobutoxy-6-hexadecylpyrimidin-5-ol]: in data set [1], the activity at 1 µM was 100 ± 1% and the activity at 5 µM came out at 114 ± 3%. Moreover, the activity at 20 µM in data set [1] (20 μM) is 103 ± 2%. The recovery at 30 min, 25 μM in data set [2] is 65 ± 8%.

Consider `CCCCCCCCCCCCCCCCc1nc(N2CCC2)nc(N2CCC2)c1O` [Compound 4c, 2,4-Di-(Azetidin-1-yl)-6-hexadecylpyrimidin-5-ol], for which, in data set [1], the activity at 1 µM was found to be 92 ± 1% and the activity at 5 µM is 61 ± 9%. Further, the activity at 20 µM in data set [1] (20 μM) was found to be 1 ± 2%. In data set [2], the recovery at 30 min, 25 μM was found to be 62 ± 3%.

`CCCCCCCCCCCCCCc1nc(N2CCC2)nc(N2CCC2)c1O` [Compound 4b, 2,4-Di-(azetidin-1-yl)-6-tetradecylpyrimidin-5-ol]: in data set [1], the activity at 1 µM turned out to be 86 ± 3% and the activity at 5 µM was 46 ± 7%. Further, the activity at 20 µM in data set [1] (20 μM) is 1%. Moreover, in data set [2], the recovery at 30 min, 25 μM amounted to 63 ± 5%.
